Test results: US8895745B2, “Bicyclic heterocyclic compounds as FGFR inhibitors” (Astex Therapeutics Limited, priority 2006, dated 2014)
Where a name gives a salt, the structure may show the parent alone. Read-outs that look alike come from different tables or passages of the source.

Assays:
[1] = biological target: FGFR3 (Homo sapiens (Human), UniProt P22607); test: FGFR3 in vitro kinase inhibitory activity assay (TRF, biotinylated Flt3 substrate); assay type: biochemical
Description: Enzymes (from Upstate) were prepared at 2× final concentration in 1× kinase assay buffer (as described below). Enzymes were then incubated with test compounds, biotinylated Flt3 substrate (biotin—DNEYFYV) (Cell Signalling Technology Inc.) and ATP. The reaction was allowed to proceed for 3 hours (FGFR3) or 2.5 hrs (PDGFR-beta) at room temperature on a plate shaker at 900 rpm before being stopped with 20 μl of 35 mM EDTA, pH 8 (FGFR3) or 55 mM EDTA, pH 8 (PDGFR-beta). […] The plate was then read on a Packard Fusion plate reader in TRF mode.
Kinase Assay buffers were:
A: 50 mM HEPES pH 7.5, 6 mM MnCl2, 1 mM DTT, 0.1% TritonX-100

[2] = tested on: LP-1 cell line; test: Cell-based pERK ELISA method, LP-1 cells; settings: Homo sapiens
Description: LP-1 or JIM-1 multiple myeloma cells were seeded in 96 well plates at 1×10^6 cells/ml in 200 ul per well in serum free media. […] Cells were incubated for 16 h at 37° C. prior to the addition of a test compound for 30 minutes. Test compounds were administered at a 0.1% final DMSO concentration. […] ELISA plates and standards were prepared according o the standard DuoSet protocols and the relative amounts of pERK to total ERK in each sample calculated according to the standard curve.
In particular, compounds of the invention were tested against the LP-1 cell line (DSMZ no.: ACC 41) derived from human multiple myeloma.

[3] = read-out: IC50 less than 1 μM or at least 50% inhibition of the FGFR3 activity at a concentration of 1 μM
[4] = LP-1, read-out: IC50 less than 1 μM or at least 50% inhibition at a concentration of 1 μM, LP-1 pERK ELISA

FGFR3, sequence (P22607 23-806): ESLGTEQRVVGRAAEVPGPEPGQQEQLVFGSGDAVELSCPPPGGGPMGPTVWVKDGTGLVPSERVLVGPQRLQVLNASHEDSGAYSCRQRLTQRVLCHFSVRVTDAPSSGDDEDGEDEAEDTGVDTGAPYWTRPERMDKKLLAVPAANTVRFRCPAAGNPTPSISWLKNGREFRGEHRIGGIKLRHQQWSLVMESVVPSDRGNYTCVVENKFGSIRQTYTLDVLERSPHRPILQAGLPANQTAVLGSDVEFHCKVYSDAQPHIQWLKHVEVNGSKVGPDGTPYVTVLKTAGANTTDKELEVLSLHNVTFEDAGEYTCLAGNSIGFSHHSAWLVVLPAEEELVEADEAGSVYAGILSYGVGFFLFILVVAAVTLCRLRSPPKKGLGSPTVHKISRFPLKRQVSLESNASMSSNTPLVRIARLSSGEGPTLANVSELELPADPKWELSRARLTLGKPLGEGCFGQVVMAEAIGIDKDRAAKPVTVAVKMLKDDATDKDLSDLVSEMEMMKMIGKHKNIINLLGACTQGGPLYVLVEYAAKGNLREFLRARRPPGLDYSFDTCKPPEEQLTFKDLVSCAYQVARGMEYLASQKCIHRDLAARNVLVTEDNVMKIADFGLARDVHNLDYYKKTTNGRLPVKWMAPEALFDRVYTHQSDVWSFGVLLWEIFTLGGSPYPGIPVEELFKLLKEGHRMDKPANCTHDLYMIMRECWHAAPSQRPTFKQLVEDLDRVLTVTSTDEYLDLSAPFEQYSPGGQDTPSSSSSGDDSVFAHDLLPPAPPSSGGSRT

SMILES	IC50 [1, 3]	IC50 [2, 4]	also measured
Fc1ccc(-c2ccn3c(-c4ccc5[nH]ccc5c4)cnc3c2)cc1 [Example 70, 7-(4-Fluoro-phenyl)-3-(1H-indol-5-yl)-imidazo[1,2-a]pyridine formate salt]	< 1000 nM		
Cc1c(-c2ccn3c(-c4cccc(NC(=O)NCC(F)(F)F)c4)cnc3c2)ncn1C [Example 374, 1-{3-[7-(1,5-Dimethyl-1H-imidazol-4-yl)-imidazo[1,2-a]pyridin-3-yl]-phenyl}-3-(2,2,2-trifluoro-ethyl)-urea]			IC50 ([2]; LP-1, read-out: LP-1 pERK ELISA (μM)): 0.0084 µM; inhibition at 0.001 µM ([1]; % inhibition at 0.001 μM, read-out: FGFR3 IC50 or % inhibition): 64%
COc1cncc(-c2ccc3ncc(-c4cccc(NC(C)=O)c4)n3c2)c1 [Example 101, N-{3-[6-(5-Methoxy-pyridin-3-yl)-imidazo[1,2-a]pyridin-3-yl]-phenyl}-acetamide]	< 1000 nM		
CCNC(=O)Nc1cccc(-c2cnn3cc(-c4cnn(C)c4)cnc23)c1 [Example 135, 1-Ethyl-3-{3-[6-(1-methyl-1H-pyrazol-4-yl)-pyrazolo[1,5-a]pyrimidin-3-yl]-phenyl}-urea]		< 1 µM	
NS(=O)(=O)c1cccc(-c2ccn3c(-c4cccc(NC(=O)NCC(F)(F)F)c4)cnc3c2)c1 [Example 249, 3-(3-{3-[3-(2,2,2-Trifluoro-ethyl)-ureido]-phenyl}-imidazo[1,2-a]pyridin-7-yl)-benzene-sulfonamide formate]		< 1 µM	

More lines, main results first:

IC50 [1, 3]	IC50 [2, 4]	SMILES	also measured
< 1000 nM		COc1ccc(-c2ccc3ncc(-c4cccc(NC(C)=O)c4)n3c2)cc1 [Example 100, N-{3-[6-(4-Methoxy-phenyl)-imidazo[1,2-a]pyridin-3-yl]-phenyl}-acetamide formate salt]	
< 1000 nM	< 1 µM	Cc1nc(C)n(-c2ccn3c(-c4cccc(NC(=O)NCC(F)(F)F)c4)cnc3c2)n1 [Example 414, 1-{3-[7-(3,5-Dimethyl-[1,2,4]triazol-1-yl)-imidazo[1,2-a]pyridin-3-yl]-phenyl}-3-(2,2,2-trifluoro-ethyl)-urea]	IC50 ([1]; read-out: IC50 less than 10 μM or at least 50% inhibition of the FGFR3 activity at a concentration of 10 μM): < 10000 nM
	< 1 µM	CS(=O)(=O)c1cccc(-c2ccn3c(-c4cccc(NC(=O)NCC(F)(F)F)c4)cnc3c2)c1 [Example 251, 1-{3-[7-(3-Methane-sulfonyl-phenyl)-imidazo[1,2-a]pyridin-3-yl]-phenyl}-3-(2,2,2-trifluoro-ethyl)-urea formate]	
